Test results from ChEMBL document CHEMBL3046352, “Synthesis, anti-HSV-1, and cytotoxic activities of some new pyrazole- and isoxazole-based heterocycles” (Med Chem Res, 2011).
Converted amounts (≈) assume the structure as drawn. The source made the active and inactive calls. The rule behind the calls is not given here.

Tests used:
[1] = tested on: Human alphaherpesvirus 1; assay: Antiviral activity against Human herpesvirus 1 infected Vero cells assessed as reduction in viral plaque after 66 hr relative to control; format: functional; parameters: concentration or dose not given beside the values
[2] = Cytotoxicity against Chlorocebus aethiops (African green monkey) Vero cells assessed as concentration required for 50% loss of monolayer around viral plaque after 66 hr; format: cell-based; conditions: chlorocebus sabaeus, read-out: Activity
[3] = tested on: Human alphaherpesvirus 1; assay: Antiviral activity against Human herpesvirus 1 infected Vero cells after 66 hr; format: functional

Row | SMILES | Activity [1] | CC50 at 66 h [2] [µg/mL] | MAC [3] [mg/mL]
1 | O=C(N/N=C/c1ccc(F)cc1)c1cc(-c2ccc(Cl)cc2)on1 | 56% | 10 (≈ 29.1 µM) | –
2 | CC(=N/NC(=O)c1cc(-c2ccc(Cl)cc2)n(-c2ccccc2)n1)/C(Cl)=N\Nc1ccc(F)cc1 | 69% | 20 (≈ 39.3 µM) | 0.1
3 | CC(=N/NC(=O)c1cc(-c2ccc(Cl)cc2)on1)/C(Cl)=N\Nc1ccc(F)cc1 | 51% | 20 (≈ 46.1 µM) | 0.1
4 | O=C(N/N=C1/S/C(=C\c2ccc(F)cc2)C(=O)N1c1ccccc1)c1cc(-c2ccc(Cl)cc2)on1 | inactive | 20 (≈ 38.5 µM) | –
5 | O=C(NN1C(=O)c2ccccc2C1=O)c1cc(-c2ccc(Cl)cc2)on1 | inactive | 10 (≈ 27.2 µM) | 0.1
6 | O=C(N/N=c1\scc(-c2ccc(Cl)cc2)n1-c1ccccc1)c1cc(-c2ccc(Cl)cc2)n(-c2ccccc2)n1 | inactive | 20 (≈ 34.3 µM) | –
7 | O=C(NNC(=S)Nc1ccccc1)c1cc(-c2ccc(Cl)cc2)on1 | 19% | 20 (≈ 53.6 µM) | 0.1
8 | NNC(=O)c1cc(-c2ccc(Cl)cc2)on1 | 43% | 10 (≈ 42.1 µM) | 0.1
9 | Clc1ccc(-c2cc(-c3nnc(Nc4ccccc4)s3)no2)cc1 | inactive | 20 (≈ 56.4 µM) | –
10 | CC1=NN(C(=O)c2cc(-c3ccc(Cl)cc3)on2)C(=O)/C1=N/Nc1ccc(F)cc1 | inactive | 20 (≈ 47 µM) | –
11 | C[C@@]1(CO)[C@H](O)CC[C@@]2(C)[C@H]1CC[C@H]1C[C@@H]3C[C@@]12CC[C@]3(O)CO [APHIDICOLIN] | 100% | 10 (≈ 29.5 µM) | 0.005
12 | Clc1ccc(-c2cc(-c3nnc(Nc4ccccc4)s3)nn2-c2ccccc2)cc1 | inactive | 30 (≈ 69.8 µM) | –
13 | O=C(NNC(=S)Nc1ccccc1)c1cc(-c2ccc(Cl)cc2)n(-c2ccccc2)n1 | inactive | 20 (≈ 44.6 µM) | –
14 | O=C(N/N=C1/S/C(=C\c2ccc(F)cc2)C(=O)N1c1ccccc1)c1cc(-c2ccc(Cl)cc2)n(-c2ccccc2)n1 | inactive | 30 (≈ 50.5 µM) | –
15 | NNC(=O)c1cc(-c2ccc(Cl)cc2)n(-c2ccccc2)n1 | 65% | 20 (≈ 63.9 µM) | 0.1
16 | O=C(N/N=C/c1ccc(F)cc1)c1cc(-c2ccc(Cl)cc2)n(-c2ccccc2)n1 | 67% | 20 (≈ 47.7 µM) | 0.1
17 | O=C(N/N=c1\scc(-c2ccc(Cl)cc2)n1-c1ccccc1)c1cc(-c2ccc(Cl)cc2)on1 | inactive | 20 (≈ 39.4 µM) | –
18 | CC1=NN(C(=O)c2cc(-c3ccc(Cl)cc3)n(-c3ccccc3)n2)C(=O)/C1=N/Nc1ccc(F)cc1 | inactive | 20 (≈ 39.9 µM) | –
